Assay results: patent publication US11098055B2, “Ester ACC inhibitors and uses thereof” (Gilead Apollo, LLC, priority 2015, dated 2021)
Converted amounts (≈) assume the structure as drawn.

Assays:
hACC2 = hACC2 (Homo sapiens, UniProt O00763); assay: In vitro ACC2 inhibition assay (ADP-Glo), human ACC2; type: biochemical
Experimental: An exemplary procedure for the in vitro ACC inhibition assay, which can be used to determine the inhibitory action of compounds of the invention toward either human (hACC2) or fungal (fACC2) ACC2, follows. The ADP-Glo™ Kinase Assay kit from Promega was used. The ADP-Glo™ Kinase Assay is a luminescent ADP detection assay to measure enzymatic activity by quantifying the amount of ADP produced during an enzyme reaction. The assay is performed in two steps; first, after the enzyme reaction, an equal volume of ADP-Glo™ Reagent is added to terminate the reaction and deplete the remaining ATP. Second, the Kinase Detection Reagent is added to simultaneously convert ADP to ATP and allow the newly synthesized ATP to be measured using a luciferase/luciferin reaction. Luminescence can be correlated to ADP concentrations by using an ATP-to-ADP conversion curve. The detailed procedure is as follows. 50 μL of the compound being tested (600 μM in DMSO) was added to a 384-well dilution plate. The compound was diluted 1:3 in succession in DMSO for each row for 11 wells. 0.5 μL ACC2 working solution was added to 384-well white Optiplate assay plate. 0.5 μL diluted compound solution in each column from step 2 was added to assay plate, each row containing 2 replicates. For the last 2 rows, 0.5 μL negative control (DMSO) was added in one row and 0.5 μL positive control (compound I-97) in the other. The plates were incubated at room temperature for 15 minutes. 5 μL substrate working solution was added to each well to initiate reaction. Final ACC2 reaction concentrations consist of: 5 nM ACC2, 20 μM ATP, 20 μM acetyl-CoA, 12 mM NaHCO3, 0.01% Brij35, 2 mM DTT, 5% DMSO, test compound concentrations: 30 μM, 10 μM, 3.33 μM, 1.11 μM, 0.37 μM, 0.123 μM, 0.0411 μM, 0.0137 μM, 0.00457 μM, 0.00152 μM, and 0.00051 μM. Plates were incubated at room temperature for 60 minutes. 10 μL ADP glo reagent was added. Plates were incubated at room temperature for 40 minutes. 20 μL kinase detection reagent was added. Plates were incubated at room temperature for 40 minutes, and then read on a Perkin Elmer EnVision 2104 plate reader for luminescence as Relative Light Units (RLU).
Data for each concentration, as well as the positive and negative controls, were averaged, and the standard deviation calculated. Percent inhibition was calculated by the formula: 100×(average negative control−compound)/(average negative control−average positive control). The IC50 for each compound was calculated by fitting the data with a non-linear regression equation: Y=Bottom+(Top−Bottom)/(1+10^((Log IC50−X)*HillSlope)), where X is the log of compound concentration and Y is percent inhibition.

C. albicans ATCC 90028 = assay: Anti-Fungal (Candida) Activity Assay, broth microtiter MIC; type: cell-based; conditions: ATCC90028, 48 h, 3 replicates, MIC read at 48 h
Experimental: (§1) Compounds of the present invention were evaluated in an Anti-Fungal Activity Assay. An exemplary procedure for the assay, which measures the susceptibility of various Candida species to anti-fungal compounds, follows. Compounds to be tested (including fluconazole and amphotericin B) were dissolved in DMSO to obtain a solution having a concentration of 1 mg/mL. These stock solutions were sterile filtered using a 0.22 um nylon syringe filter, then diluted in sterile water to achieve a final concentration of 128 μg/mL.
(§2) All species were grown from frozen stock by directly plating on to freshly prepared Sabouraud Dextrose agar (BD, Difco) and incubated overnight in ambient air at 35° C. for 24 h. A direct suspension was prepared in RPMI 1640+MOPS (Lonza, Biowhittaker) by taking individual colonies from the overnight cultures using sterile swabs soaked in sterile saline. The concentration of the suspension was determined using pre-determined standard curves. These suspensions were then diluted down to 5×10^3 CFU/mL to achieve a final concentration of 2.5×10^3 CFU/mL once added to the microtiter plate as per CLSI guidelines (M27-A3, Vol. 28 No. 14).
(§3) Broth microtiter MIC challenge plates were prepared following CLSI guidelines (M27-A3, Vol. 28 No. 14). The original CLSI guidelines focused on reading Candida MICs after 48 h of incubation. As reading after only 24 h offers a clear advantage of patient care, QC limits are being established for all drugs at 24 h. That being said there are no known interpretive breakpoints for amphotericin B at 24 h and the current fluconazole interpretive breakpoints are based on a 48 h reading. The MIC for the test compounds were recorded at 48 h. All MIC determinations were achieved by visually comparing the growth found in the antibiotic challenged wells to that of the growth control.

[1] = tested on: C. parapsilosis ATCC 22019; assay: as above; type: cell-based; conditions: Lodderomyces parapsilosis, ATCC22019, 48 h, 3 replicates, MIC read at 48 h
Experimental: as §1, §2, §3

C. krusei ATCC 6258 = assay: as above; type: cell-based, Candida krusei; conditions: Pichia kudriavzevii, ATCC6258, 48 h, 3 replicates, MIC read at 48 h
Experimental: as §1, §2, §3

Sequence of hACC2 (O00763 whole entry): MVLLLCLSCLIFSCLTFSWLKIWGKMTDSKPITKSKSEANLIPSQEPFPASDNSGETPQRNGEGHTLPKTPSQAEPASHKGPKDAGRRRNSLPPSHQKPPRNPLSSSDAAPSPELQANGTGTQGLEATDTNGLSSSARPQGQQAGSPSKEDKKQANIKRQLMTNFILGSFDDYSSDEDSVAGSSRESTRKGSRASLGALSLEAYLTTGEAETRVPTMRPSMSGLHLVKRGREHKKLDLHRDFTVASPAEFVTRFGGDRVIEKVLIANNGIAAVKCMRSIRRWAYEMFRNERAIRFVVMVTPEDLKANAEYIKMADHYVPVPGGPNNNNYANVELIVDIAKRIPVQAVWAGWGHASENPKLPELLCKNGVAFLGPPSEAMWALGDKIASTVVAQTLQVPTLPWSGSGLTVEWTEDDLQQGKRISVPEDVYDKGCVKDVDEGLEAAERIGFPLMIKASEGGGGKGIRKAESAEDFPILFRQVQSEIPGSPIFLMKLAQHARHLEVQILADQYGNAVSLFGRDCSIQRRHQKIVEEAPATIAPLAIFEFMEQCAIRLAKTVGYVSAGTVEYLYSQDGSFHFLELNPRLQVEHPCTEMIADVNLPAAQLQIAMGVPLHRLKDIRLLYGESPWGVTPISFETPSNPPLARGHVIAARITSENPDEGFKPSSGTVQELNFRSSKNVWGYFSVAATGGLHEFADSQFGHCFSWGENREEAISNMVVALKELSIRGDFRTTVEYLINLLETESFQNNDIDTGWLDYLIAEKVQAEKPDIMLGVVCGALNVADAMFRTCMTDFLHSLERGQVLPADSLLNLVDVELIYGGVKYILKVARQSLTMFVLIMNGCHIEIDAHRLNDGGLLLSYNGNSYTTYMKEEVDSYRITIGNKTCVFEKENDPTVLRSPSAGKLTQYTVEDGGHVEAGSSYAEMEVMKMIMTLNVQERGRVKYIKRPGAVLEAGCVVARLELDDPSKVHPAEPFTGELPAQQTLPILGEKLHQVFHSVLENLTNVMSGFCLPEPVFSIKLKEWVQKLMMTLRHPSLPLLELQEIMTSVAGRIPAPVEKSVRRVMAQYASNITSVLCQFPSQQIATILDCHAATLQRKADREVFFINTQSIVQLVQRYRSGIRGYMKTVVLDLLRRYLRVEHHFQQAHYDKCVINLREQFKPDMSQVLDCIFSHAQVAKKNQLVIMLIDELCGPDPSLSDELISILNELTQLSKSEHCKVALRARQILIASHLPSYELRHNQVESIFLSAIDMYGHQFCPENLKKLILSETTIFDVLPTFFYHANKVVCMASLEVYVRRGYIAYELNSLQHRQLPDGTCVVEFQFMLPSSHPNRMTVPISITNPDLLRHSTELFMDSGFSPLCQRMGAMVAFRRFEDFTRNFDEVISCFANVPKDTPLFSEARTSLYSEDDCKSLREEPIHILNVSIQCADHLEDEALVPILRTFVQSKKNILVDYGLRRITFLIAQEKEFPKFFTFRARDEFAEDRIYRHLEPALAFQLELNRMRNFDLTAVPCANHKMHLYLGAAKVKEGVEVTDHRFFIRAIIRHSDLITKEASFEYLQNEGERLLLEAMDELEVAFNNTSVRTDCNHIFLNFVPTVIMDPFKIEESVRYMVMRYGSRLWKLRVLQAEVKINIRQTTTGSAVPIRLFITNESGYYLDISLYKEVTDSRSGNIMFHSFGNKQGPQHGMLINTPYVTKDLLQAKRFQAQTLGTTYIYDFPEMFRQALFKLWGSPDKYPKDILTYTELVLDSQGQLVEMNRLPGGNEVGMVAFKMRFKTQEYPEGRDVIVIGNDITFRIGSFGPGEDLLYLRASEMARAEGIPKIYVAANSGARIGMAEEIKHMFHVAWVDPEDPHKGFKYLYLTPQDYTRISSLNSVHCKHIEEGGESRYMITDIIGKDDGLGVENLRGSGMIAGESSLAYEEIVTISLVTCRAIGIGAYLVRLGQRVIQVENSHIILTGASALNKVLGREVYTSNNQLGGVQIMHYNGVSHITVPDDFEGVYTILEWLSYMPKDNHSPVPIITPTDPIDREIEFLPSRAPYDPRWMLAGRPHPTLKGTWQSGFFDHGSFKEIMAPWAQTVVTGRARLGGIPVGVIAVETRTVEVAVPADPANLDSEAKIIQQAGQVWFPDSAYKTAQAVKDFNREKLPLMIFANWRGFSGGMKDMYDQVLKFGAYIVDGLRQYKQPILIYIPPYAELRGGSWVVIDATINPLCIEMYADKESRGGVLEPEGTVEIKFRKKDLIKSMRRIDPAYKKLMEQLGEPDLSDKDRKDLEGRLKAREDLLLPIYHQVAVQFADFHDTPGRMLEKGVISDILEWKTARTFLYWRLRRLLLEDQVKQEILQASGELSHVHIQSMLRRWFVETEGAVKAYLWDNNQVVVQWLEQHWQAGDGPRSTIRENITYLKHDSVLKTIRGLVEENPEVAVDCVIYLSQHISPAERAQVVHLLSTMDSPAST

Row | Compound | IC50 (hACC2; Table 2a) | IC50 (hACC2; Table 2b (additional results)) | MIC (C. albicans ATCC 90028; Table 3a) | MIC (C. albicans ATCC 90028; Table 3b (additional results)) | MIC ([1]; Table 3a) | MIC ([1]; Table 3b (additional results)) | MIC (C. krusei ATCC 6258; Table 3a) | MIC (C. krusei ATCC 6258; Table 3b (additional results))
1 | CCOC(=O)c1sc2c(c1C)c(=O)n(C(C)(C)C(=O)N1CCCCC1)c(=O)n2C[C@H](OC1CCOCC1)c1ccccc1OC [Compound I-2, ethyl (R)-1-(2-(2-methoxyphenyl)-2-((tetrahydro-2H-pyran-4-yl)oxy)ethyl)-5-methyl-3-(2-methyl-1-oxo-1-(piperidin-1-yl)propan-2-yl)-2,4-dioxo-1,2,3,4-tetrahydrothieno[2,3-d]pyrimidine-6-carboxylate] | 10 to 40 nM | 10 to 40 nM | 0.25 to 1 µg/mL (≈ 0.39 to 1.56 µM) | 0.25 to 1 µg/mL (≈ 0.39 to 1.56 µM) | 0.25 to 1 µg/mL (≈ 0.39 to 1.56 µM) | 0.25 to 1 µg/mL (≈ 0.39 to 1.56 µM) | 0.25 to 1 µg/mL (≈ 0.39 to 1.56 µM) | 0.25 to 1 µg/mL (≈ 0.39 to 1.56 µM)
2 | CCNC(=O)C(C)(C)n1c(=O)c2c(C)c(C(=O)OCC)sc2n(C[C@H](OC(C)C)c2ccccc2OC)c1=O [Compound I-4, (R)-ethyl 3-(1-(ethylamino)-2-methyl-1-oxopropan-2-yl)-1-(2-isopropoxy-2-(2-methoxyphenyl)ethyl)-5-methyl-2,4-dioxo-1,2,3,4-tetrahydrothieno[2,3-d]pyrimidine-6-carboxylate] | 10 to 40 nM | 10 to 40 nM | 2.1 to 4 µg/mL (≈ 3.75 to 7.15 µM) | 2.1 to 4 µg/mL (≈ 3.75 to 7.15 µM) | > 4.1 µg/mL | 2.1 to 4 µg/mL (≈ 3.75 to 7.15 µM) | 2.1 to 4 µg/mL (≈ 3.75 to 7.15 µM) | 2.1 to 4 µg/mL (≈ 3.75 to 7.15 µM)
3 | CCOC(=O)c1sc2c(c1C)c(=O)n(C(C)(C)C(=O)N1CCOCC1)c(=O)n2C[C@H](OC(C)C)c1ccccc1OC [Compound I-5, (R)-ethyl 1-(2-isopropoxy-2-(2-methoxyphenyl)ethyl)-5-methyl-3-(2-methyl-1-morpholino-1-oxopropan-2-yl)-2,4-dioxo-1,2,3,4-tetrahydrothieno[2,3-d]pyrimidine-6-carboxylate] | 10 to 40 nM | 10 to 40 nM | > 4.1 µg/mL | > 4.1 µg/mL | > 4.1 µg/mL | 2.1 to 4 µg/mL (≈ 3.49 to 6.65 µM) | > 4.1 µg/mL | 2.1 to 4 µg/mL (≈ 3.49 to 6.65 µM)
4 | CCNC(=O)[C@H](C)n1c(=O)c2c(C)c(C(=O)OCC)sc2n(C[C@H](OCCC#N)c2cc(F)ccc2OC)c1=O [Compound I-42, ethyl 1-((R)-2-(2-cyanoethoxy)-2-(5-fluoro-2-methoxyphenyl)ethyl)-3-((S)-1-(ethylamino)-1-oxopropan-2-yl)-5-methyl-2,4-dioxo-1,2,3,4-tetrahydrothieno[2,3-d]pyrimidine-6-carboxylate] | – | 3 to 10 nM | – | 2.1 to 4 µg/mL (≈ 3.65 to 6.96 µM) | – | 2.1 to 4 µg/mL (≈ 3.65 to 6.96 µM) | – | 2.1 to 4 µg/mL (≈ 3.65 to 6.96 µM)
5 | CCOC(=O)c1sc2c(c1C)c(=O)n(C(C)(C)C(=O)N1CCCC1)c(=O)n2C[C@H](OCCO)c1cc(F)ccc1OC [Compound I-12, (R)-ethyl 1-(2-(5-fluoro-2-methoxyphenyl)-2-(2-hydroxy-ethoxy)ethyl)-5-methyl-3-(2-methyl-1-oxo-1-(pyrrolidin-1-yl)propan-2-yl)-2,4-dioxo-1,2,3,4-tetrahydrothieno[2,3-d]pyrimidine-6-carboxylate] | 3 to 10 nM | 3 to 10 nM | > 4.1 µg/mL | 2.1 to 4 µg/mL (≈ 3.47 to 6.6 µM) | > 4.1 µg/mL | 0.25 to 1 µg/mL (≈ 0.413 to 1.65 µM) | 2.1 to 4 µg/mL (≈ 3.47 to 6.6 µM) | 2.1 to 4 µg/mL (≈ 3.47 to 6.6 µM)
6 | CCOC(=O)c1sc2c(c1C)c(=O)n([C@@H](C)C(=O)N1CCCC1)c(=O)n2C[C@H](OCCC#N)c1cc(F)ccc1OC [Compound I-23, ethyl 1-((R)-2-(2-cyanoethoxy)-2-(5-fluoro-2-methoxy-phenyl)ethyl)-5-methyl-2,4-dioxo-3-((S)-1-oxo-1-(pyrrolidin-1-yl)propan-2-yl)-1,2,3,4-tetrahydrothieno[2,3-d]pyrimidine-6-carboxylate] | – | 3 to 10 nM | – | 2.1 to 4 µg/mL (≈ 3.5 to 6.66 µM) | – | > 4.1 µg/mL | – | 0.25 to 1 µg/mL (≈ 0.416 to 1.66 µM)
7 | CCOC(=O)c1sc2c(c1C)c(=O)n(C(C)(C)C(=O)NC(C)C)c(=O)n2C[C@H](OC1CCOCC1)c1ccccc1OC [Compound I-8, (R)-ethyl 3-(1-(isopropylamino)-2-methyl-1-oxopropan-2-yl)-1-(2-(2-methoxyphenyl)-2-((tetrahydro-2H-pyran-4-yl)oxy)ethyl)-5-methyl-2,4-dioxo-1,2,3,4-tetrahydrothieno[2,3-d]pyrimidine-6-carboxylate] | 10 to 40 nM | 10 to 40 nM | 1.1 to 2 µg/mL (≈ 1.79 to 3.25 µM) | 1.1 to 2 µg/mL (≈ 1.79 to 3.25 µM) | 1.1 to 2 µg/mL (≈ 1.79 to 3.25 µM) | 2.1 to 4 µg/mL (≈ 3.41 to 6.5 µM) | 0.25 to 1 µg/mL (≈ 0.406 to 1.62 µM) | 2.1 to 4 µg/mL (≈ 3.41 to 6.5 µM)
8 | CCOC(=O)c1sc2c(c1C)c(=O)n(C(C)(C)C(=O)NC(C)C)c(=O)n2C[C@H](OCCS(C)(=O)=O)c1cc(F)ccc1OC [Compound I-36, ethyl (R)-1-(2-(5-fluoro-2-methoxyphenyl)-2-(2-(methylsulfonyl)ethoxy)ethyl)-3-(1-(isopropylamino)-2-methyl-1-oxopropan-2-yl)-5-methyl-2,4-dioxo-1,2,3,4-tetrahydrothieno[2,3-d]pyrimidine-6-carboxylate] | – | 10 to 40 nM | – | 0.25 to 1 µg/mL (≈ 0.381 to 1.52 µM) | – | 2.1 to 4 µg/mL (≈ 3.2 to 6.1 µM) | – | 2.1 to 4 µg/mL (≈ 3.2 to 6.1 µM)
9 | CCNC(=O)C(C)(C)n1c(=O)c2c(C)c(C(=O)OCC)sc2n(C[C@H](O)c2cc(F)ccc2OC)c1=O [Compound I-39, ethyl (R)-3-(1-(ethylamino)-2-methyl-1-oxopropan-2-yl)-1-(2-(5-fluoro-2-methoxyphenyl)-2-hydroxyethyl)-5-methyl-2,4-dioxo-1,2,3,4-tetrahydrothieno[2,3-d]pyrimidine-6-carboxylate] | – | 10 to 40 nM | – | 2.1 to 4 µg/mL (≈ 3.92 to 7.47 µM) | – | 2.1 to 4 µg/mL (≈ 3.92 to 7.47 µM) | – | 0.25 to 1 µg/mL (≈ 0.467 to 1.87 µM)
10 | CCOC(=O)c1sc2c(c1C)c(=O)n(C(C)(C)C(=O)NC(C)C)c(=O)n2C[C@H](OCC(C)(C)C#N)c1ccccc1OC [Compound I-38, ethyl (R)-1-(2-(2-cyano-2-methylpropoxy)-2-(2-methoxyphenyl)ethyl)-3-(1-(isopropylamino)-2-methyl-1-oxopropan-2-yl)-5-methyl-2,4-dioxo-1,2,3,4-tetrahydrothieno[2,3-d]pyrimidine-6-carboxylate] | – | 10 to 40 nM | – | 0.25 to 1 µg/mL (≈ 0.408 to 1.63 µM) | – | 2.1 to 4 µg/mL (≈ 3.43 to 6.53 µM) | – | > 4.1 µg/mL
11 | CCOC(=O)c1sc2c(c1C)c(=O)n([C@H](C)C(=O)NC(C)C)c(=O)n2C[C@H](O)c1cc(F)ccc1OC [Compound I-43, ethyl 1-((R)-2-(5-fluoro-2-methoxyphenyl)-2-hydroxyethyl)-3-((R)-1-(isopropylamino)-1-oxopropan-2-yl)-5-methyl-2,4-dioxo-1,2,3,4-tetrahydrothieno[2,3-d]pyrimidine-6-carboxylate] | – | ≥ 40 nM | – | 2.1 to 4 µg/mL (≈ 3.92 to 7.47 µM) | – | 2.1 to 4 µg/mL (≈ 3.92 to 7.47 µM) | – | 2.1 to 4 µg/mL (≈ 3.92 to 7.47 µM)
